Experimental data from PubChem BioAssay AID1918932 (Molecular Pharmacology Branch, DTP, NCI, 2023).
Values joined by “and” are separate entries in the source; they are usually repeats but may differ in a detail not shown here. Equal values may be shown once.

Tested on: 171881-019-R-J1-PDC complex spheroid viability
Assay: Anticancer human tumor 171881-019-R-J1-PDC patient-derived invasive breast carcinoma cell line growth inhibition
Conditions: for viability, T/C: stronger effect = lower value
Procedure, shortened: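 Multicellular complex spheroids of tumor cells with human endothelial cells (HUVEC) and mesenchymal stem cells; the LSD1 inhibitor iadademstat was combined with standard-of-care or investigational agents. Top concentration at or near clinical Cmax, half-log dilutions; final DMSO ≤0.25%.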

[1] = curve of first compound, second compound 0.1 µM
[2] = curve of first compound, second compound 0.316 µM
[3] = curve of first compound, second compound 1 µM
[4] = curve of first compound, second compound 3.16 µM
[5] = curve of first compound, second compound 10 µM
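Also: spheroids exposed to agents for 7 days after 3 days growth.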

In the case of `CC1COCCN1c1cc(C2(S(C)(=N)=O)CC2)nc(-c2ccnc3[nH]ccc23)n1` (stereo unspecified) + NC1CC1c1ccc(-c2cccc(O)c2)cc1, the IC50 [1] is reported as 1370 nM, the IC50 [2] is reported as 1450 nM and the IC50 [3] is reported as 1470 nM. For the same compound, the IC50 [4] was 1410 nM, the IC50 [5] was 1150 nM and the viability, T/C (second compound 0.1 µM, first compound 0.0316 µM) was 103%. The viability, T/C (second compound 0.1 µM, first compound 0.1 µM) was 102%, the viability, T/C (second compound 0.1 µM, first compound 0.316 µM) was 97.9% and the viability, T/C (second compound 0.1 µM, first compound 1 µM) was 59.6%. The viability, T/C (second compound 0.1 µM, first compound 3.16 µM) was 22.3%, the viability, T/C (second compound 0.1 µM, first compound 10 µM) was 9.45% and the viability, T/C (second compound 0.316 µM, first compound 0.0316 µM) was 106%. The viability, T/C (second compound 0.316 µM, first compound 0.1 µM) was 103%, the viability, T/C (second compound 0.316 µM, first compound 0.316 µM) was 99.3% and the viability, T/C (second compound 0.316 µM, first compound 1 µM) was 61.1%. For the same compound, the viability, T/C (second compound 0.316 µM, first compound 3.16 µM) was 24.7%, the viability, T/C (second compound 0.316 µM, first compound 10 µM) was 9.56% and the viability, T/C (second compound 1 µM, first compound 0.0316 µM) was 103%. The viability, T/C (second compound 1 µM, first compound 0.1 µM) was 104%, the viability, T/C (second compound 1 µM, first compound 0.316 µM) was 91.1% and the viability, T/C (second compound 1 µM, first compound 1 µM) was 63.5%. The viability, T/C (second compound 1 µM, first compound 3.16 µM) was 24.3%, the viability, T/C (second compound 1 µM, first compound 10 µM) was 9.48% and the viability, T/C (second compound 3.16 µM, first compound 0.0316 µM) was 99.5%. The viability, T/C (second compound 3.16 µM, first compound 0.1 µM) was 104%, the viability, T/C (second compound 3.16 µM, first compound 0.316 µM) was 96.9% and the viability, T/C (second compound 3.16 µM, first compound 1 µM) was 61.5%. For the same compound, the viability, T/C (second compound 3.16 µM, first compound 3.16 µM) was 21.8%, the viability, T/C (second compound 3.16 µM, first compound 10 µM) was 8.64% and the viability, T/C (second compound 10 µM, first compound 0.0316 µM) was 86.4%. It also gave a viability, T/C (second compound 10 µM, first compound 0.1 µM) of 87.7%, a viability, T/C (second compound 10 µM, first compound 0.316 µM) of 81.6% and a viability, T/C (second compound 10 µM, first compound 1 µM) of 53.3%. It also gave a viability, T/C (second compound 10 µM, first compound 3.16 µM) of 21.1% and a viability, T/C (second compound 10 µM, first compound 10 µM) of 8.98%.
For `CC[C@@]1(O)C(=O)OCc2c1cc1n(c2=O)Cc2cc3c(CN(C)C)c(O)ccc3nc2-1`, the viability, T/C (compound 0.000316 µM) was 90.9% and 99.1%, the viability, T/C (compound 0.001 µM) was 116% and 105% and the viability, T/C (compound 0.00316 µM) was 129% and 84.4%. For the same compound, the viability, T/C (compound 0.01 µM) was 64.3% and 70.4%, the viability, T/C (compound 0.0316 µM) was 67.5% and 66% and the viability, T/C (compound 0.1 µM) was 46.6% and 37.6%. For the same compound, the IC50 (curve of compound) was > 100 nM and 55.2 nM.
With `CC(C)CC(NC(=O)C(Cc1ccccc1)NC(=O)c1cnccn1)B(O)O` (stereo unspecified) the viability, T/C (compound 0.000316 µM) was 9.71% and 22.8%, the viability, T/C (compound 0.001 µM) was 1.12% and 20.1% and the viability, T/C (compound 0.00316 µM) was 0.41% and 17.8%. The viability, T/C (compound 0.01 µM) was 0.25% and 10.1%, the viability, T/C (compound 0.0316 µM) was 0.24% and 12% and the viability, T/C (compound 0.1 µM) was 0.17% and 6.28%. For the same compound, the IC50 (curve of compound) was less than 0.316 nM.
`O=C(C=Cc1cccc(S(=O)(=O)Nc2ccccc2)c1)NO` + NC1CC1c1ccc(-c2cccc(O)c2)cc1 showed an IC50 [1] of 382 nM, an IC50 [2] of 404 nM and an IC50 [3] of 419 nM. For the same compound, the IC50 [4] was 389 nM, the IC50 [5] was 309 nM and the viability, T/C (second compound 0.1 µM, first compound 0.00949 µM) was 99.8%. For the same compound, the viability, T/C (second compound 0.1 µM, first compound 0.03 µM) was 104%, the viability, T/C (second compound 0.1 µM, first compound 0.0949 µM) was 102% and the viability, T/C (second compound 0.1 µM, first compound 0.3 µM) was 63.1%. It also gave a viability, T/C (second compound 0.1 µM, first compound 0.949 µM) of 1.03%, a viability, T/C (second compound 0.1 µM, first compound 3 µM) of 0.11% and a viability, T/C (second compound 0.316 µM, first compound 0.00949 µM) of 100%. For the same compound, the viability, T/C (second compound 0.316 µM, first compound 0.03 µM) was 98.5%, the viability, T/C (second compound 0.316 µM, first compound 0.0949 µM) was 100% and the viability, T/C (second compound 0.316 µM, first compound 0.3 µM) was 67%. The viability, T/C (second compound 0.316 µM, first compound 0.949 µM) was 1.15%, the viability, T/C (second compound 0.316 µM, first compound 3 µM) was 0.13% and the viability, T/C (second compound 1 µM, first compound 0.00949 µM) was 104%. The viability, T/C (second compound 1 µM, first compound 0.03 µM) was 103%, the viability, T/C (second compound 1 µM, first compound 0.0949 µM) was 103% and the viability, T/C (second compound 1 µM, first compound 0.3 µM) was 69.9%. The viability, T/C (second compound 1 µM, first compound 0.949 µM) was 1.32%, the viability, T/C (second compound 1 µM, first compound 3 µM) was 0.23% and the viability, T/C (second compound 3.16 µM, first compound 0.00949 µM) was 92%. The viability, T/C (second compound 3.16 µM, first compound 0.03 µM) was 89.5%, the viability, T/C (second compound 3.16 µM, first compound 0.0949 µM) was 97.2% and the viability, T/C (second compound 3.16 µM, first compound 0.3 µM) was 64.3%. For the same compound, the viability, T/C (second compound 3.16 µM, first compound 0.949 µM) was 1.09%, the viability, T/C (second compound 3.16 µM, first compound 3 µM) was 0.11% and the viability, T/C (second compound 10 µM, first compound 0.00949 µM) was 77%. For the same compound, the viability, T/C (second compound 10 µM, first compound 0.03 µM) was 73.5%, the viability, T/C (second compound 10 µM, first compound 0.0949 µM) was 85.6% and the viability, T/C (second compound 10 µM, first compound 0.3 µM) was 51.4%. For the same compound, the viability, T/C (second compound 10 µM, first compound 0.949 µM) was 0.76% and the viability, T/C (second compound 10 µM, first compound 3 µM) was 0.14%.
In the case of `CC(C)CC(NC(=O)CNC(=O)c1cc(Cl)ccc1Cl)B1OC(=O)CC(CC(=O)O)(C(=O)O)O1` (stereo unspecified), the viability, T/C (compound 0.000316 µM) is reported as 91.2% and 75.3%, the viability, T/C (compound 0.001 µM) is reported as 105% and 52.1% and the viability, T/C (compound 0.00316 µM) is reported as 48% and 33.7%. For the same compound, the viability, T/C (compound 0.01 µM) was 12.6% and 17.4%, the viability, T/C (compound 0.0316 µM) was 3.28% and 13.3% and the viability, T/C (compound 0.1 µM) was 0.97% and 15.7%. The IC50 (curve of compound) was 3.02 nM and 1.19 nM.
